Assay results published in patent US20220233624A9, “ANTI-CANCER AND ANTI-PROLIFERATIVE COMPOSITIONS, AND METHODS FOR THEIR USE IN TREATING CANCER” (Natreon, Inc., priority 2020, published 2022).
Several values for one entry are separate records, joined by “and”; a condition that tells them apart may be missing. Equal values may be shown once. Read-outs that look alike come from different tables or passages of the source. Marks after values point to notes of the source that are not given here.

Columns and labels:
[1] = system: Breast Cancer PDCs, ER/PR+ Her2 equivocal (HR+); experiment: Anti-proliferation assay on breast cancer HR+ PDCs; assay type: cell-based, human; settings: drug alone @ 3 uM; for inhibition at 3 µM: Homo sapiens; for % Inhibition, single replicates: 3 µM
Procedure: (§1) The outermost rows/columns of the plates were filled with PBS (pH 7.4) to avoid an edge-effect and were considered as blanks. Standardized aqueous extracts identified in Table 2 were prepared in main stock solutions by dissolving 1 mg of extract in 1 ml PBS (phosphate-buffered saline, pH 7.4). […] The plate was incubated in a CO2 incubator for 0/N incubation for 24 hours. […] Once extracts were added to incubated cells and mixed gently, the plate was given a brief spin and incubated in the CO2 incubator for 72 hours. The plate was removed from the incubator and 10 ul of detection reagent (CellTiterGlo®; Promega Corporation, Wisconsin, USA) added to each well of the 384 well plate. […] The assay described above is a two-dimensional (2D) assay.

[2] = system: Breast Cancer PDCs, ER/PR− Her2+ (Her2+); experiment: Anti-proliferation assay on breast cancer Her2+ PDCs; assay type: cell-based, human; settings: drug alone @ 3 uM; for inhibition at 3 µM: Homo sapiens; for % Inhibition, single replicates: 3 µM
Procedure: as §1

[3] = system: Breast Cancer PDCs, Triple negative (TN), SB 36344; experiment: Anti-proliferation assay on breast cancer TN PDCs; assay type: cell-based, human; settings: drug alone @ 3 uM; for inhibition at 3 µM: Homo sapiens; for % Inhibition, single replicates: 3 µM
Procedure: as §1

[4] = system: colon cancer cells (cell line HT-29); experiment: Anti-proliferation assay on colon cancer cells; assay type: cell-based; settings: Homo sapiens
Procedure: (§2) Anti-proliferative and anti-cancer activity of extracts of this invention on non-small cell lung cancer cells and colon cancer cells were assessed generally as described in Example I and are discussed below. […] As noted throughout this application, the below data is intended to describe the present invention but not to be limiting.
(§3) Non-small cell lung cancer cells (cell line NCI-H-358) and colon cancer cells (cell line HT-29) were plated in a 384-well plate in amounts of about 1.25 k cells/well. […] Wells with untreated cells and with plain media were also included as controls. Plates passed quality control parameters.

[5] = system: TN breast cancer PDCs SB 30750; experiment: Anti-proliferation assay on TN breast cancer PDCs SB 30750; assay type: cell-based; settings: Homo sapiens, 3 uM, 72 h
Procedure: In this Example, AyuFlex®, Capros®, and Ayuric® were each applied to different PDCs than previous tests, TN breast cancer PDCs SB 30750, and tested via the anti-proliferation assay described above. […] Incubation times were 72 hours.

[6] = system: TN Breast Cancer cell line MDAMB-231; experiment: Anti-proliferation assay on MDAMB-231 cells (72 h and 120 h); assay type: cell-based; settings: Homo sapiens, MDA-MB-231, 3 uM
Procedure: Also, AyuFlex®, Capros®, and Ayuric® were tested in the anti-proliferative assay discussed above in the TN Breast Cancer cell line MDAMB-231. AyuFlex®, Capros®, and Ayuric® were incubated for 72 hours and 120 hours. The dose-response efficacy of AyuFlex®, Capros®, and Ayuric® after a 72-hour period of incubation was similar to that observed after a 120-hour period of incubation with the MDAMB-231 cells. Without being bound by theory, possibly this was due to saturation of cell growth at the 120-hour time-point.

[7] = system: colon cancer cells (cell line HT-29); settings: J. Surg. Res. 111(1):63-69 (2003); read-out: IC50 (published); cited from earlier work
[8] = system: Non-small cell lung cancer cells (cell line NCI-H-358); experiment: Anti-proliferation assay on non-small cell lung cancer cells; assay type: cell-based; settings: Homo sapiens, NCI-H358
Procedure: as §2, §3

[9] = system: SHP-77 (small cell lung cancer) cells; experiment: Anti-proliferation assay on small cell lung cancer cells; assay type: cell-based; settings: Homo sapiens, SHP77
Procedure: SHP-77 (small cell lung cancer) cells were incubated for 72 hours with 100 ug/ml, 30 ug/ml, and 10 ug/ml each of AyuFlex®, Capros® Phyto-BGS®, PrimaVie®, Sensoril®, Ayuric®, and Crominex®, and tested according to the anti-proliferative assay described above. Cells were plated at 1.25 k/well in 384 well plates. Standard of care drug docetaxel was also tested at a 10 uM concentration as a control. Anti-proliferative assays were generally performed as discussed above, in triplicate, with detection reagent CellTiterGlo® as discussed for instance in Example I. Tables 77-79 show data for controls and that the data passed quality control parameters.

[10] = system: Prostate cancer (PC-3) cells; experiment: Anti-proliferation assay on prostate cancer cells; assay type: cell-based; settings: Homo sapiens
Procedure: (§4) Cells were plated at 1.25 k/well in 384 well plates. […] Anti-proliferative assays were generally performed as discussed in Example I above, in triplicate, with detection reagent CellTiterGlo. Tables 80-82 show data for controls for assays on prostate cancer (PC-3 cells), and that the data passed quality control parameters. Tables 83-85 show data for controls for assays on ovarian cancer (OVCAR-3 cells), and that the data passed quality control parameters.

[11] = system: Ovarian cancer (OVCAR-3) cells; experiment: Anti-proliferation assay on ovarian cancer cells; assay type: cell-based; settings: Homo sapiens
Procedure: as §4

[12] = system: Non-small cell lung cancer cells (cell line NCI-H-358); settings: Intl. J. Oncol. 31:241-252 (2007); read-out: IC50 (published); cited from earlier work
[13] = read-out: % Inhibition, single replicates
[14] = drug 10 uM, read-out: inhibition of proliferation
[15] = plate control @ 10 uM, read-out: % Inhibition Average (SD)
[16] = plate control @ 10 uM, read-out: % Inhibition n1
[17] = plate control @ 10 uM, read-out: % Inhibition n2
[18] = plate control @ 10 uM, read-out: % Inhibition n3
[19] = 72 hour incubation, read-out: % Inhibition Avg
[20] = 72 hour incubation, read-out: % Inhibition n1
[21] = 72 hour incubation, read-out: % Inhibition n2
[22] = 72 hour incubation, read-out: % Inhibition n3
[23] = 120 hour incubation, read-out: % Inhibition Avg
[24] = 120 hour incubation, read-out: % Inhibition n1
[25] = 120 hour incubation, read-out: % Inhibition n2
[26] = 120 hour incubation, read-out: % Inhibition n3
[27] = 10 uM, 72 h, read-out: % Inhibition Average (SD)
[28] = 10 uM, 72 h, read-out: % Inhibition n1
[29] = 10 uM, 72 h, read-out: % Inhibition n2
[30] = 10 uM, 72 h, read-out: % Inhibition n3
[31] = drug 10 uM, read-out: inhibition

O=c1[nH]cc(F)c(=O)[nH]1 [5-FU, 5-fluorouracil]
inhibition at 3 µM ([1]; read-out: % Inhibition Avg): ~28%
% Inhibition Avg [1]: 29%
% Inhibition, single replicates [1]: 42% and 20% and 23%
inhibition at 3 µM [2]: 18%
% Inhibition, single replicates [2]: 41* % and 16% and 19%
inhibition at 3 µM ([3]; read-out: % Inhibition Avg): 38%
inhibition at 3 µM [3, 13]: 48%
% Inhibition, single replicates [3]: 33%
inhibition at 10 µM [4, 14]: 12%
inhibition at 10 µM [4, 15]: 12%
inhibition at 10 µM [4, 16]: 20%
inhibition at 10 µM [4, 17]: 7%
inhibition at 10 µM [4, 18]: 10%
inhibition at 3 µM ([5]; read-out: % Inhibition Avg): 24%
inhibition at 3 µM ([5]; read-out: % Inhibition n1): 44%
inhibition at 3 µM ([5]; read-out: % Inhibition n2): 14%
inhibition at 3 µM ([5]; read-out: % Inhibition n3): 14%
inhibition at 3 µM [6, 19]: 4%
inhibition at 3 µM [6, 20]: 21%
inhibition at 3 µM [6, 21]: -5%
inhibition at 3 µM [6, 22]: -4%
inhibition at 3 µM [6, 23]: -8%
inhibition at 3 µM [6, 24]: 20%
inhibition at 3 µM [6, 25]: -10%
inhibition at 3 µM [6, 26]: -5%
IC50 [7]: 13 µM

CC(=O)O[C@@]12CO[C@@H]1C[C@H](O)[C@@]1(C)C(=O)[C@H](O)C3=C(C)[C@@H](OC(=O)[C@H](O)[C@@H](NC(=O)OC(C)(C)C)c4ccccc4)C[C@@](O)([C@@H](OC(=O)c4ccccc4)[C@H]21)C3(C)C [Docetaxel, docetaxel]
inhibition at 3 µM ([1]; read-out: % Inhibition Avg): ~59%
inhibition at 3 µM [1, 13]: 67%
% Inhibition, single replicates [1]: 53% and 58%
inhibition at 3 µM [2]: ~50%
% Inhibition, single replicates [2]: 30* % and 43% and 57%
inhibition at 3 µM ([3]; read-out: % Inhibition Avg): ~48%
inhibition at 3 µM [3, 13]: 56%
% Inhibition, single replicates [3]: 44% and 43%
inhibition at 10 µM [8, 14]: 58%
inhibition at 10 µM [8, 15]: 58%
inhibition at 10 µM [8, 16]: 63%
inhibition at 10 µM [8, 17]: 55%
inhibition at 10 µM [8, 18]: 58%
inhibition at 3 µM ([5]; read-out: % Inhibition Avg): 56%
inhibition at 3 µM ([5]; read-out: % Inhibition n1): 68%
inhibition at 3 µM ([5]; read-out: % Inhibition n2): 52%
inhibition at 3 µM ([5]; read-out: % Inhibition n3): 47%
inhibition at 3 µM [6, 19]: 56%
inhibition at 3 µM [6, 20]: 67%
inhibition at 3 µM [6, 21]: 50%
inhibition at 3 µM [6, 22]: 52%
inhibition at 3 µM [6, 23]: 75%
inhibition at 3 µM [6, 24]: 78%
inhibition at 3 µM [6, 25]: 71%
inhibition at 3 µM [6, 26]: 76%
inhibition at 10 µM [9, 27]: 90%
inhibition at 10 µM [9, 28]: 90%
inhibition at 10 µM [9, 29]: 91%
inhibition at 10 µM [9, 30]: 89%
inhibition at 10 µM [9, 31]: 90%
inhibition at 10 µM [10, 27]: 58%
inhibition at 10 µM [10, 28]: 53%
inhibition at 10 µM [10, 29]: 67%
inhibition at 10 µM [10, 30]: 56%
inhibition at 10 µM [10, 31]: 58%
inhibition at 10 µM [11, 27]: 66%
inhibition at 10 µM [11, 28]: 65%
inhibition at 10 µM [11, 29]: 68%
inhibition at 10 µM [11, 30]: 65%
inhibition at 10 µM [11, 31]: 66%
IC50 [12]: 0.367 µM
